Counter-ions that a name gives are not always drawn. Like-named read-outs stand apart in the source and are kept apart here.
Legend:
CDK4 = CDK4 (Homo sapiens (Human), UniProt P11802); assay: In vitro kinase inhibition, luminescence (ADP-Glo) with retinoblastoma substrate; format: biochemical
CDK6 = CDK6 (Homo sapiens (Human), UniProt Q00534); assay: biochemical; format: biochemical
FMS kinase = FMS kinase (Homo sapiens (Human), UniProt P07333); assay: LanthaScreen kinase assay (ATP, fluorescent-PolyGT substrate, TR-FRET); format: biochemical
MCF-7 = assay: Cancer cell proliferation assay, single agent; format: cell-based; conditions: Homo sapiens
[1] = MCF7, read-out: IC50 (nM) MCF-7
[2] = MCF7, MCF-7 cells, treated for 24-168 hours, read-out: IC50 (nM) MCF-7

Sequence of FMS kinase (P07333 20-972): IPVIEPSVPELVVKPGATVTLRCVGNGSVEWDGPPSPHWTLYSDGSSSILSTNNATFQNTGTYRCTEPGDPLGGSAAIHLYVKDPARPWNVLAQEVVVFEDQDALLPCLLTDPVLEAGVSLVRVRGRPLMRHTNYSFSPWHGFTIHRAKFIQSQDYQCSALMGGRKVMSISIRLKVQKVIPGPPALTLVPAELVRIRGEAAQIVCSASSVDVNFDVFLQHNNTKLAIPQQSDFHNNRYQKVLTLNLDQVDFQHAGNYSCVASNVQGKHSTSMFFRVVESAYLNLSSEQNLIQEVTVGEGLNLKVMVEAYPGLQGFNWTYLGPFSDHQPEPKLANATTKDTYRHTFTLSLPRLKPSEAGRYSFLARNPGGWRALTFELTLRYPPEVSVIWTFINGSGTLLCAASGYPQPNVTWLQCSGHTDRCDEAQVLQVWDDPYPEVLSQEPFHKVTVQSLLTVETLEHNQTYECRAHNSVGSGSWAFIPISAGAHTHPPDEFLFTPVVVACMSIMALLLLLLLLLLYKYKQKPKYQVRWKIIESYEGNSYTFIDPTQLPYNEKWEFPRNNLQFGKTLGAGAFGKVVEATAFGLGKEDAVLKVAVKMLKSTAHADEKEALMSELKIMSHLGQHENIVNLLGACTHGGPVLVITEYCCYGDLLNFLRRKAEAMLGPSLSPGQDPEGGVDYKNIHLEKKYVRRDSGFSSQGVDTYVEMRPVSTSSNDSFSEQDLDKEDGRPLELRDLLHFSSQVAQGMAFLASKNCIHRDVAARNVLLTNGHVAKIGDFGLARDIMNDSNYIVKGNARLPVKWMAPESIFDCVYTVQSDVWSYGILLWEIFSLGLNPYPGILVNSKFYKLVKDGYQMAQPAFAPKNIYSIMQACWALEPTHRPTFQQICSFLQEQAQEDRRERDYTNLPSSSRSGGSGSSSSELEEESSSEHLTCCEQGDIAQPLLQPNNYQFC
Sequence of CDK4 (P11802 whole entry): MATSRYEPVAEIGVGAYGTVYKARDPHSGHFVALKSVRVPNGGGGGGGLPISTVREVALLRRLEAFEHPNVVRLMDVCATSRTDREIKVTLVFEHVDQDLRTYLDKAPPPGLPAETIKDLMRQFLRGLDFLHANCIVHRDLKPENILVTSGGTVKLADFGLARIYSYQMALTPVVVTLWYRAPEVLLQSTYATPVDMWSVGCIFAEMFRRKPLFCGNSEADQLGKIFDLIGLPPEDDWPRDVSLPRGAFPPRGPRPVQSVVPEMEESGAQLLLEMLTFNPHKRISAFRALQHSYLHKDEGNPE
Sequence of CDK4 (P24385 whole entry partner): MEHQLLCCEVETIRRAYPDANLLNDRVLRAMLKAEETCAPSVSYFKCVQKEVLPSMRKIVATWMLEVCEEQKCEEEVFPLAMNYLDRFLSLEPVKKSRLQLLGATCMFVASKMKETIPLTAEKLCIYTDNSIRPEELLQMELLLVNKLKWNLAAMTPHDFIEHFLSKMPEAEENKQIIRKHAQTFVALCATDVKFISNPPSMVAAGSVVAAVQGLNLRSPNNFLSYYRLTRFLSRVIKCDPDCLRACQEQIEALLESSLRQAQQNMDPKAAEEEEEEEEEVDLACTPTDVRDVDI

SMILES	IC50 (CDK4)	IC50 (CDK6)	IC50 (FMS kinase)	IC50 (MCF-7; [1])	IC50 (MCF-7; [2])
CC(C)N1CCOc2c(F)cc(-c3nc(Nc4ccc(C5CCN(C)CC5)c(F)n4)ncc3F)cc21 [Compound 846, 5-fluoro-4-(8-fluoro-4-isopropyl-3,4-dihydro-2H-benzo[b][1,4]oxazin-6-yl)-N-(6-fluoro-5-(1-methylpiperidin-4-yl)pyridin-2-yl)pyrimidin-2-amine]	3 nM	4 nM			
CC(C)N1C(=O)COc2c(F)cc(-c3nc(Nc4ccc(N5CCNCC5)cn4)ncc3F)cc21 [Compound 2, 8-fluoro-6-(5-fluoro-2-(5-(piperazin-1-yl)pyridin-2-ylamino)pyrimidin-4-yl)-4-isopropyl-2H-benzo[b][1,4]oxazin-3(4H)-one]	6 nM	6.9 nM	> 5000 nM		
COc1nc(Nc2ncc(F)c(-c3cc(F)c4c(c3)N(C(C)C)CCO4)n2)ccc1C1CCN(C)CC1 [Compound 844, 5-fluoro-4-(8-fluoro-4-isopropyl-3,4-dihydro-2H-benzo[b][1,4]oxazin-6-yl)-N-(6-methoxy-5-(1-methylpiperidin-4-yl)pyridin-2-yl)pyrimidin-2-amine]	31 nM	35 nM			
CN1CCOc2c(F)cc(-c3nc(Nc4ccc(N5CCNCC5)c(F)c4)ncc3F)cc21 [Compound 34, 5-fluoro-N-(3-fluoro-4-(piperazin-1-yl)phenyl)-4-(8-fluoro-4-methyl-3,4-dihydro-2H-benzo[b][1,4]oxazin-6-yl)pyrimidin-2-amine]	3 nM	6 nM	42 nM	50 nM	
CC(C)N1CCOc2c(Cl)cc(-c3nc(Nc4ccc(N5CCNCC5)c(F)c4)ncc3Cl)cc21 [Compound 52, 5-chloro-4-(8-chloro-4-isopropyl-3,4-dihydro-2H-benzo[b][1,4]oxazin-6-yl)-N-(3-fluoro-4-(piperazin-1-yl)phenyl)pyrimidin-2-amine]	89 nM	200 nM	14 nM		695 nM
CC(C)N1CCOc2c(F)cc(-c3nc(Nc4ccc(C(=O)N5CCC(O)CC5)cn4)ncc3F)cc21 [Compound 460, (6-((5-fluoro-4-(8-fluoro-4-isopropyl-3,4-dihydro-2H-benzo[b][1,4]oxazin-6-yl)pyrimidin-2-yl)amino)pyridin-3-yl)(4-hydroxypiperidin-1-yl)methanone]	13 nM	18 nM	> 5000 nM		595 nM
COC1CCN(c2ccc(Nc3ncc(F)c(-c4cc(F)c5c(c4)N(C(C)C)CCO5)n3)nc2)CC1 [Compound 843, 5-fluoro-4-(8-fluoro-4-isopropyl-3,4-dihydro-2H-benzo[b][1,4]oxazin-6-yl)-N-(5-(4-methoxypiperidin-1-yl)pyridin-2-yl)pyrimidin-2-amine hydrochloride]	65 nM	24 nM			
CC(C)N1CCOc2c(F)cc(-c3nc(Nc4ccc(N5CCN(C)CC5)cc4)ncc3F)cc21 [Compound 6, 5-fluoro-4-(8-fluoro-4-isopropyl-3,4-dihydro-2H-benzo[b][1,4]oxazin-6-yl)-N-(4-(4-methylpiperazin-1-yl)phenyl)pyrimidin-2-amine]			82 nM		30 nM
CC(C)N1CCOc2c(F)cc(-c3nc(Nc4ccc(N5CCN(C)CC5)c(F)c4)ncc3F)cc21 [Compound 14, 5-fluoro-N-(3-fluoro-4-(4-methylpiperazin-1-yl)phenyl)-4-(8-fluoro-4-isopropyl-3,4-dihydro-2H-benzo[b][1,4]oxazin-6-yl) pyrimidin-2-amine]			49 nM	11 nM	
CCCc1nc(Nc2ncc(F)c(-c3cc(F)c4c(c3)N(C(C)C)CCO4)n2)ccc1C1CCN(C)CC1 [Compound 848, 5-fluoro-4-(8-fluoro-4-isopropyl-3,4-dihydro-2H-benzo[b][1,4]oxazin-6-yl)-N-(5-(1-methylpiperidin-4-yl)-6-propylpyridin-2-yl)pyrimidin-2-amine]	44 nM	110 nM			
CCCN1CCOc2c(F)cc(-c3nc(Nc4ccc(N5CCNCC5)c(F)c4)ncc3F)cc21 [Compound 36, 5-fluoro-N-(3-fluoro-4-(piperazin-1-yl)phenyl)-4-(8-fluoro-4-propyl-3,4-dihydro-2H-benzo[b][1,4]oxazin-6-yl)pyrimidin-2-amine]	4 nM	5 nM	102 nM	40 nM	
CC(C)N1CCOc2c(F)cc(-c3nc(Nc4ccc(N5CCNCC5)c(F)c4)ncc3Cl)cc21 [Compound 30, 5-chloro-N-(3-fluoro-4-(piperazin-1-yl)phenyl)-4-(8-fluoro-4-isopropyl-3,4-dihydro-2H-benzo[b][1,4]oxazin-6-yl)pyrimidin-2-amine]	1 nM	13 nM	79 nM	233 nM	
CC1CN(C(C)C)c2cc(-c3nc(Nc4ccc(N5CCNCC5)c(F)c4)ncc3F)cc(F)c2O1 (centres unmarked) [Compound 32, 5-fluoro-N-(3-fluoro-4-(piperazin-1-yl)phenyl)-4-(8-fluoro-4-isopropyl-2-methyl-3,4-dihydro-2H-benzo[b][1,4]oxazin-6-yl)pyrimidin-2-amine]	12 nM	21 nM	177 nM		130 nM
CC(C)N1CCOc2c(F)cc(-c3nc(Nc4ccc(N5CCNCC5)c(F)c4F)ncc3F)cc21 [Compound 28, N-(2,3-difluoro-4-(piperazin-1-yl)phenyl)-5-fluoro-4-(8-fluoro-4-isopropyl-3,4-dihydro-2H-benzo[b][1,4]oxazin-6-yl)pyrimidin-2-amine]			123 nM	150 nM	
CC(C)N1CCOc2c(F)cc(-c3nc(Nc4ccn(C5=CCNCC5)c(=O)c4)ncc3F)cc21 [Compound 39, 4-((5-fluoro-4-(8-fluoro-4-isopropyl-3,4-dihydro-2H-benzo[b][1,4]oxazin-6-yl)pyrimidin-2-yl)amino)-1′,2′,3′,6′-tetrahydro-2H-[1,4′-bipyridin]-2-one]			33 nM		45 nM
CC(C)N1CCOc2c(F)cc(-c3nc(Nc4ccc(C5CCN(C)CC5)c(C#N)n4)ncc3F)cc21 [Compound 845, 6-((5-fluoro-4-(8-fluoro-4-isopropyl-3,4-dihydro-2H-benzo[b][1,4]oxazin-6-yl)pyrimidin-2-yl)amino)-3-(1-methylpiperidin-4-yl)picolinonitrile]	23 nM	29 nM			
CC(C)N1CCOc2c(F)cc(-c3nc(Nc4ccc5c(c4)CCC(N(C)C)C5)ncc3F)cc21 (centres unmarked) [Compound 47, N6-(5-fluoro-4-(8-fluoro-4-isopropyl-3,4-dihydro-2H-benzo[b][1,4]oxazin-6-yl)pyrimidin-2-yl)-N2,N2-dimethyl-1,2,3,4-tetrahydronaphthalene-2,6-diamine]	3.5 nM	4 nM	2.5 nM		20 nM
CC(C)N1CCOc2c(F)cc(-c3nc(Nc4ccc(C5CCN(C)CC5)c(C5CC5)n4)ncc3F)cc21 [Compound 847, N-(6-cyclopropyl-5-(1-methylpiperidin-4-yl)pyridin-2-yl)-5-fluoro-4-(8-fluoro-4-isopropyl-3,4-dihydro-2H-benzo[b][1,4]oxazin-6-yl)pyrimidin-2-amine]	44 nM	107 nM			
CC(C)N1CCN(c2ccc(Nc3ncc(F)c(-c4cc(F)c5c(c4)N(C(C)C)CCO5)n3)cc2F)CC1 [Compound 17, 5-fluoro-N-(3-fluoro-4-(4-isopropylpiperazin-1-yl)phenyl)-4-(8-fluoro-4-isopropyl-3,4-dihydro-2H-benzo[b][1,4]oxazin-6-yl)pyrimidin-2-amine]	8 nM		21 nM	15 nM	
CC(C)N1CCOc2c(F)cc(-c3nc(Nc4ccc(N5CCC(N(C)C)CC5)c(C(F)(F)F)c4)ncc3F)cc21 [Compound 178, N-(4-(4-(dimethylamino)piperidin-1-yl)-3-(trifluoromethyl)phenyl)-5-fluoro-4-(8-fluoro-4-isopropyl-3,4-dihydro-2H-benzo[b][1,4]oxazin-6-yl)pyrimidin-2-amine]			5 nM		210 nM
CC(C)N1CCOc2c(F)cc(-c3nc(Nc4cc(F)c(N5CCNCC5)cc4F)ncc3F)cc21 [Compound 31, N-(2,5-difluoro-4-(piperazin-1-yl)phenyl)-5-fluoro-4-(8-fluoro-4-isopropyl-3,4-dihydro-2H-benzo[b][1,4]oxazin-6-yl)pyrimidin-2-amine]			49 nM	193 nM	
COCCN1CCN(Cc2ccc(Nc3ncc(F)c(-c4cc(F)c5c(c4)N(C(C)C)CCO5)n3)nc2)CC1 [Compound 524, 5-fluoro-4-(8-fluoro-4-isopropyl-3,4-dihydro-2H-benzo[b][1,4]oxazin-6-yl)-N-(5-((4-(2-methoxyethyl)piperazin-1-yl)methyl)pyridin-2-yl)pyrimidin-2-amine]	3.5 nM	7.5 nM			332 nM
CC(C)N1CCc2c(cccc2Nc2ncc(F)c(-c3cc(F)c4c(c3)N(C(C)C)CCO4)n2)C1 [Compound 20, N-(5-fluoro-4-(8-fluoro-4-isopropyl-3,4-dihydro-2H-benzo[b][1,4]oxazin-6-yl)pyrimidin-2-yl)-2-isopropyl-, 2,3,4-tetrahydroisoquinolin-5-amine]			17 nM		145 nM
Fc1cnc(Nc2ccc(N3CCNCC3)cn2)nc1-c1cc(F)c2c(c1)NCCO2 [Compound 3, 5-fluoro-4-(8-fluoro-3,4-dihydro-2H-benzo[b][1,4]oxazin-6-yl)-N-(5 (piperazin-1-yl)pyridin-2-yl)pyrimidin-2-amine]	3 nM	5.7 nM	> 5000 nM		
CC(C)N1CCOc2c(F)cc(-c3nc(Nc4ccc(N5CCNCC5)c(C#N)c4)ncc3F)cc21 [Compound 21, 5-((5-fluoro-4-(8-fluoro-4-isopropyl-3,4-dihydro-2H-benzo[b][1,4]oxazin-6-yl)pyrimidin-2-yl)amino)-2-(piperazin-1-yl) benzonitrile]			163 nM	< 10 nM	

Reference: patent US11174252B2, “Heterocyclic compounds as kinase inhibitors” (priority 2018, dated 2021)
